Biological target: DRD2 (Homo sapiens, UniProt P14416)
Test: Western blot analysis of DRD2-probe binding with competition by parent pharmacophore
Design: expressed in transfected cells
Settings: probe 100 nm; for competition with parent pharmacophore (Western blot): competitor (ropinirole or pramipexole) 50 μM; for photo-cross-linking / colocalization with DRD2 band (Western blot): membrane fraction enriched via Strep Tag II
From the text: To observe the photo-cross-linking of DRD2 at the protein level, we analyzed the colocalization of DRD2 by clicking a fluorophore on the probe and performing Western blots. We further observed the competition with the parent pharmacophore of each probe and the ability of a negative control benzophenone (16) to cross-link to DRD2. Our DRD2-expressing cells or unmodified 293T cells (control group) were suspended in media, treated with the probe at a 100 nm concentration, and photo-cross-linked. The cells were then lysed, and the membrane fraction was separated and enriched for DRD2 by pulldown of the Strep Tag II fusion using magnetic beads. After “clicking” a fluorescent tag to the probe, the membrane fraction was run on an SDS-PAGE gel, transferred to a nitrocellulose membrane, and treated with antibodies against DRD2 and Strep Tag II. […] We also observed many nonspecific binding bands for the probe, which is consistent with our other studies, as well as the observations of the field when it relates to photo-cross-linking groups. […] With this confirmation, we proceeded to proteomic analysis of probe interactions.
Figure 6 Photo-cross-linking of probes 5 and 7 to DRD2 visualized with Western blot. Lanes 1–5 correspond to samples with probe 5 at 100 nm, lanes 6–10 correspond to samples treated with probe 7 at 100 nm, and lanes 11–14 correspond to samples treated with negative control probe 16. Lanes: 1, 6, and 11 are the anti-DRD2 antibody channel, lanes 2, 3, 7, 8, and 12 are fluorescence of the Alexa Fluor 555 clicked to the probes 5, 7, or 16, lanes 4, 9, and 13 are the anti-Strep Tag antibody channel, and lanes 5, 10, and 14 are the overlaid channels for the respective probes.
A stable HEK293T-derived cell line-expressing DRD2-Strep Tag II fusion was maintained in DMEM supplemented with 10% FBS, 100 U/mL penicillin, and 100 μg/mL streptomycin in a humidified atmosphere at 37 °C in 5% CO2. Cells were plated at a density of 4 × 10^4 cells/cm^2 in T300 tissue culture flasks (CellTreat) and allowed to grow to an 80% confluency. At confluency, media was removed and cells were washed once with cold HBSS, followed by incubation for 15 min in cold HBSS with 0.53 mM EDTA. Following incubation, cells were scraped off of the bottom of the flask and the cell suspension was transferred to a 15 mL conical tube and then pelleted at 500g for 5 min. The supernatant was removed, and the cell pellet was resuspended in HBSS followed by centrifugation at 500g for 5 min. […] The supernatant of the cell pellet was removed, and the cells were resuspended in probe solution and incubated at room temperature for 2 min followed by centrifugation at 500g for 5 min. The cell pellet was resuspended in either HBSS or 50 μM competitor solution in HBSS and irradiated with a 365 nm UV lamp (8 W, 2 cm distance) for 30 min at room temperature. The cells were then pelleted at 500g for 5 min, and the supernatant was removed. Membrane fractionation was performed following the MEM-PER Membrane Protein Extraction Kit (Thermo). The solubilized membrane fraction was incubated with hydrophilic streptavidin magnetic beads (NEB) for 1 h at room temperature. The flow-through was removed, and the beads were washed twice with PBS. […]

Sequence of DRD2 (P14416 whole entry): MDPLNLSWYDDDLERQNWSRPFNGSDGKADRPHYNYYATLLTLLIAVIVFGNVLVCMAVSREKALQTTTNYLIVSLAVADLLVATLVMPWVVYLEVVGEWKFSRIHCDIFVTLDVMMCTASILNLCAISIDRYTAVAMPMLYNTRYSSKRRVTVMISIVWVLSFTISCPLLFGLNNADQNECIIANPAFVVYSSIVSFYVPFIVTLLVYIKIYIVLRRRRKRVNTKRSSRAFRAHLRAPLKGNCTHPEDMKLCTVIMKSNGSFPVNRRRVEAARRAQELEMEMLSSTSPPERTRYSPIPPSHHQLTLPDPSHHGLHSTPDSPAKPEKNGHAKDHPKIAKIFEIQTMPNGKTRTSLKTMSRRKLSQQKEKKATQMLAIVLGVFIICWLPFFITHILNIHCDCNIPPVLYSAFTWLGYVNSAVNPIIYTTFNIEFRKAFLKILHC

competition with parent pharmacophore (Western blot)	photo-cross-linking / colocalization with DRD2 band (Western blot)	Compound
greatly diminish the binding	binding to the DRD2 receptor	C#CCOc1ccc(C(=O)c2ccc(CNCCc3cccc4c3CC(=O)N4)cc2)cc1 [Compound 5, 4-(2-((4-(4-(Prop-2-yn-1-yloxy)benzoyl)benzyl)amino)ethyl)indolin-2-one]
greatly diminish the binding	binding to the DRD2 receptor	C#CCOc1ccc(C(=O)c2ccc(CN[C@H]3CCc4nc(N)sc4C3)cc2)cc1 [Compound 7, (S)-(4-(((2-Amino-4,5,6,7-tetrahydrobenzo[d]thiazol-6-yl)amino)methyl)phenyl)(4-(prop-2-yn-1-yloxy)phenyl)methanone]
